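Test compounds were applied to cells in 96-well plates for 48 hours at 5 doses. GI50 marks 50% less growth.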 Active and inactive are the calls of the source. No stated cut-off is given here; in the data, active = GI50 up to about 1.1 µM and inactive = higher.
Key:
Test in all cases: NCI tumour cell line growth inhibition, 48 h
KM-20L2 = system: KM-20L2
DLD-1 = system: DLD-1
TK-10 = system: TK-10
EKVX = system: EKVX
HCC 2998 = system: HCC 2998
ACHN = system: ACHN
786-0 = system: 786-0
M19-MEL = system: M19-MEL
SNB-78 = system: SNB-78
IGROV-1 = system: IGROV-1
M14 = system: M14
RPMI-8226 = system: RPMI-8226
SW-620 = system: SW-620
U-251 = system: U-251
HOP-62 = system: HOP-62
Malme-3M = system: Malme-3M
NCI-H522 = system: NCI-H522
A549 = system: A549
OVCAR-8 = system: OVCAR-8
SK-MEL-2 = system: SK-MEL-2
SK-OV-3 = system: SK-OV-3
SNB-19 = system: SNB-19
K562 = system: K562
NCI-H226 = system: NCI-H226
OVCAR-4 = system: OVCAR-4
COLO 205 = system: COLO 205
SR = system: SR
KM12 = system: KM12
UACC-257 = system: UACC-257
HOP-92 = system: HOP-92
UO-31 = system: UO-31
SNB-75 = system: SNB-75
XF498 = system: XF498
HT-29 = system: HT-29
SF-268 = system: SF-268
SK-MEL-28 = system: SK-MEL-28
A498 = system: A498
NCI-H23 = system: NCI-H23
HOP-18 = system: HOP-18
OVCAR-3 = system: OVCAR-3
NCI-H460 = system: NCI-H460
SN12C = system: SN12C
HCT-15 = system: HCT-15
RXF 393 = system: RXF 393
SF-539 = system: SF-539
DMS-273 = system: DMS-273
SF-295 = system: SF-295
HCT-116 = system: HCT-116
CCRF-CEM = system: CCRF-CEM
LOX IMVI = system: LOX IMVI
UACC-62 = system: UACC-62
HL-60 = system: HL-60
LXFL 529 = system: LXFL 529
MOLT-4 = system: MOLT-4
DMS-114 = system: DMS-114
CAKI-1 = system: CAKI-1
SK-MEL-5 = system: SK-MEL-5
OVCAR-5 = system: OVCAR-5

`CCSc1nnc(-c2ccccc2)nc1Cc1ccc(OC)cc1` was tested, and the GI50 (KM-20L2) was > 100 µM (inactive), the GI50 (DLD-1) was > 100 µM (inactive) and the GI50 (TK-10) was > 100 µM (inactive). For the same compound, the GI50 (EKVX) was > 100 µM (inactive), the GI50 (HCC 2998) was > 100 µM (inactive) and the GI50 (ACHN) was 77.8 µM (inactive). For the same compound, the GI50 (786-0) was > 100 µM (inactive), the GI50 (M19-MEL) was > 100 µM (inactive) and the GI50 (SNB-78) was 78 µM (inactive). For the same compound, the GI50 (IGROV-1) was > 100 µM (inactive), the GI50 (M14) was > 100 µM (inactive) and the GI50 (RPMI-8226) was 81.8 µM (inactive). The GI50 (SW-620) was > 100 µM (inactive), the GI50 (U-251) was 79.6 µM (inactive) and the GI50 (HOP-62) was > 100 µM (inactive). For the same compound, the GI50 (Malme-3M) was > 100 µM (inactive), the GI50 (NCI-H522) was 43.3 µM (inactive) and the GI50 (A549) was 42.2 µM (inactive). The GI50 (OVCAR-8) was > 100 µM (inactive), the GI50 (SK-MEL-2) was 87.1 µM (inactive) and the GI50 (SK-OV-3) was 67.3 µM (inactive). The GI50 (SNB-19) was > 100 µM (inactive), the GI50 (K562) was 71.3 µM (inactive) and the GI50 (NCI-H226) was > 100 µM (inactive). The GI50 (OVCAR-4) was > 100 µM (inactive), the GI50 (COLO 205) was 86.9 µM (inactive) and the GI50 (SR) was 42.8 µM (inactive). For the same compound, the GI50 (KM12) was > 100 µM (inactive), the GI50 (UACC-257) was 56.5 µM (inactive) and the GI50 (HOP-92) was > 100 µM (inactive). The GI50 (UO-31) was > 100 µM (inactive), the GI50 (SNB-75) was 65.8 µM (inactive) and the GI50 (XF498) was 62.7 µM (inactive). The GI50 (HT-29) was > 100 µM (inactive), the GI50 (SF-268) was > 100 µM (inactive) and the GI50 (SK-MEL-28) was > 100 µM (inactive). For the same compound, the GI50 (A498) was 77.6 µM (inactive), the GI50 (NCI-H23) was 63.4 µM (inactive) and the GI50 (HOP-18) was > 100 µM (inactive). The GI50 (OVCAR-3) was 88.9 µM (inactive), the GI50 (NCI-H460) was 46.5 µM (inactive) and the GI50 (SN12C) was > 100 µM (inactive). The GI50 (HCT-15) was 82 µM, the GI50 (RXF 393) was > 100 µM (inactive) and the GI50 (SF-539) was > 100 µM (inactive). The GI50 (DMS-273) was 71.9 µM (inactive), the GI50 (SF-295) was 52.5 µM (inactive) and the GI50 (HCT-116) was 38.5 µM (inactive). The GI50 (CCRF-CEM) was 69 µM (inactive), the GI50 (LOX IMVI) was 47.9 µM (inactive) and the GI50 (UACC-62) was > 100 µM (inactive). For the same compound, the GI50 (HL-60) was 40.5 µM (inactive), the GI50 (LXFL 529) was 50.8 µM (inactive) and the GI50 (MOLT-4) was 49.2 µM (inactive).

With `CC1(C)Oc2ccccc2N2O[C@@H]3C(=O)N(c4ccccc4)C(=O)[C@@H]3C21c1ccccc1` (some centres undefined) the GI50 (KM-20L2) was 51.4 µM (inactive), the GI50 (DLD-1) was 25.1 µM (inactive) and the GI50 (TK-10) was 17.9 µM (inactive). For the same compound, the GI50 (EKVX) was 56.1 µM (inactive), the GI50 (HCC 2998) was > 100 µM (inactive) and the GI50 (786-0) was 16.6 µM (inactive). The GI50 (M19-MEL) was 29 µM (inactive), the GI50 (SNB-78) was 35.5 µM (inactive) and the GI50 (IGROV-1) was 47.5 µM (inactive). For the same compound, the GI50 (M14) was 20.7 µM (inactive), the GI50 (RPMI-8226) was 37.8 µM (inactive) and the GI50 (SW-620) was 34.4 µM (inactive). For the same compound, the GI50 (U-251) was 25 µM (inactive), the GI50 (HOP-62) was 16.8 µM (inactive) and the GI50 (Malme-3M) was 21.8 µM (inactive). For the same compound, the GI50 (NCI-H522) was 28.7 µM (inactive), the GI50 (A549) was 20.1 µM (inactive) and the GI50 (OVCAR-8) was > 10 µM (inactive). The GI50 (SK-MEL-2) was 23.1 µM (inactive), the GI50 (DMS-114) was 23.2 µM (inactive) and the GI50 (SK-OV-3) was 22.1 µM (inactive). For the same compound, the GI50 (SNB-19) was 19.7 µM (inactive), the GI50 (K562) was 37.4 µM (inactive) and the GI50 (NCI-H226) was 55.3 µM (inactive). For the same compound, the GI50 (OVCAR-4) was 17.9 µM (inactive), the GI50 (COLO 205) was 39.1 µM (inactive) and the GI50 (KM12) was 30.6 µM (inactive). The GI50 (UACC-257) was 34 µM (inactive), the GI50 (UO-31) was 66.1 µM (inactive) and the GI50 (SNB-75) was 17.7 µM (inactive). The GI50 (HT-29) was 29 µM (inactive), the GI50 (SF-268) was 33.9 µM (inactive) and the GI50 (SK-MEL-28) was 29.2 µM (inactive). For the same compound, the GI50 (A498) was 20.8 µM (inactive), the GI50 (NCI-H23) was 97.7 µM (inactive) and the GI50 (HOP-18) was 24.3 µM (inactive). For the same compound, the GI50 (OVCAR-3) was 21.2 µM (inactive), the GI50 (NCI-H460) was 28.9 µM (inactive) and the GI50 (RXF 393) was 23.7 µM (inactive). For the same compound, the GI50 (SF-539) was 17.3 µM (inactive), the GI50 (CAKI-1) was 24.9 µM (inactive) and the GI50 (SF-295) was 15.7 µM (inactive). For the same compound, the GI50 (HCT-116) was 20.8 µM (inactive), the GI50 (CCRF-CEM) was 27.7 µM (inactive) and the GI50 (UACC-62) was 33.1 µM (inactive). The GI50 (HL-60) was > 10 µM (inactive), the GI50 (SK-MEL-5) was 23 µM (inactive) and the GI50 (OVCAR-5) was 78.3 µM (inactive). For the same compound, the GI50 (LXFL 529) was 56.1 µM (inactive) and the GI50 (MOLT-4) was 27.1 µM (inactive).
